# Laboratory results: patent US20190231748A1, “COMPOSITION FOR VAGINA AND ANTIMICROBIAL AGENT COMBINATION FOR USE IN PREPARING COMPOSITION FOR VAGINA” (Shenzhen Eulikan Biotechnology Co., Ltd., priority 2016, published 2019)
# What was measured:
# Type in all cases: cell-based
# [1] = test system: three strains of Escherichia coli isolated from the vaginal secretion of patients with vaginitis; assay: Growth in enrichment broth (turbidity after 24 hours), clinical strains; parameters: key to growth of Escherichia coli, Bacterial strain 1 / growth of Escherichia coli, Bacterial strain 2 / growth of Escherichia coli, Bacterial strain 3: +: means the growth of bacteria; −: means no growth of bacteria; conditions: for growth of Escherichia coli, Bacterial strain 1 / growth of Escherichia coli, Bacterial strain 2 / growth of Escherichia coli, Bacterial strain 3: enrichment broth, 37° C. for 24 hours, turbidity
# Description: (§1) a. Experimental strains, three strains of Escherichia coli and three strains of Staphylococcus aureus, which were all isolated from the vaginal secretion of patients with vaginitis.
# (§2) b. Enrichment broth, which contained 1 percent of yeast extract powder, 9 percent of sucrose, 0.025 percent of manganese sulfate (MnSO4.4H2O), 0.058 percent of magnesium sulfate (MgSO4.7H2O), and 0.9 percent of lactic acid, the pH value of the broth was adjusted to 4.8, and the enrichment broth was sterilized for later use;
# (§3) (2). Experimental groups: the requirements for aseptic operation technique were strictly followed to prepare the sterile test tubes:
# (§4) a. sodium benzoate group: each test tube contained 5 milliliters of enrichment broth, and was added in 0.05 percent (weight/volume) sodium benzoate;
# (§5) b. 2-phenylethanol group: each test tube contained 5 milliliters of enrichment broth, and was added in 0.05 percent (weight/volume) of 2-phenylethanol;
# (§6) c. sodium propionate group: each test tube contained 5 milliliters of enrichment broth, and was added in 0.25 percent (weight/volume) of sodium propionate;
# (§7) d. “a group of the combinations of sodium benzoate and sodium propionate”: each test tube contained 5 milliliters of enrichment broth, and was added in 0.05 percent (weight/volume) of sodium benzoate and 0.25 percent (weight/volume) of sodium propionate;
# (§8) e. “a group of the combinations of sodium benzoate and 2-phenylethanol”: each test tube contained 5 milliliters of enrichment broth, and was added in 0.05 percent (weight/volume) of sodium benzoate and 0.05 percent (weight/volume) of 2-phenylethanol;
# (§9) f. “a group of the combinations of sodium propionate and 2-phenylethanol”: each test tube contained 5 milliliters of enrichment broth, and was added in 0.25 percent (weight/volume) of sodium propionate and 0.05 percent (weight/volume) of 2-phenylethanol;
# (§10) g. “a group of the combinations of sodium benzoate, sodium propionate and 2-phenylethanol”: each test tube contained 5 milliliters of enrichment broth, and was added in 0.05 percent (weight/volume) of sodium benzoate, 0.25 percent (weight/volume) of sodium propionate, and 0.05 percent (weight/volume) of 2-phenylethanol;
# (§11) h. positive control: one tube that contained 5 milliliters of enrichment broth without adding in any of the 2-phenylethanol, sodium benzoate, and sodium propionate, but inoculated the suspension of Escherichia coli or Staphylococcus aureus.
# (§12) i. negative control: one tube that contained 5 milliliters of enrichment broth without adding in any of the 2-phenylethanol, sodium benzoate, and sodium propionate, and not inoculated the suspension of Escherichia coli or Staphylococcus aureus.
# (§13) The requirements for aseptic operation technique were strictly followed to prepare the bacterial suspensions. The colonies of Escherichia coli and Staphylococcus aureus were diluted with physiological saline respectively to prepare bacterial suspension. The turbidities of the Escherichia coli suspension and the Staphylococcus aureus suspension were adjusted to 0.5 MCF (about 10^8 CFU/ml) by a turbidimeter. 1 milliliter of the 0.5 MCF bacterial suspensions were added into 9 milliliters of the enrichment broth respectively, so each bacterial solution was diluted for ten times to contain 10^7 CFU/ml of bacterial organisms.
# (§14) The requirements for aseptic operation technique were strictly followed to take 100 microliters of the prepared bacterial suspensions respectively, and to add the bacterial suspensions into the aforesaid test tubes from a to h as well as positive control tube. No bacterial suspension was added into the negative control tube i.
# (§15) The above tubes were cultured in a biochemical incubator at 37° C. for 24 hours, then turbidity changes of the test tube solutions were observed and recorded.
# (§16) Remark: “+” means the growth of bacteria; “−” means no growth of bacteria.
# [2] = test system: three strains of Staphylococcus aureus isolated from the vaginal secretion of patients with vaginitis; assay: as above; parameters: key to growth of Staphylococcus aureus, Bacterial strain 1 / growth of Staphylococcus aureus, Bacterial strain 2 / growth of Staphylococcus aureus, Bacterial strain 3: +: means the growth of bacteria; −: means no growth of bacteria; conditions: for growth of Staphylococcus aureus, Bacterial strain 1 / growth of Staphylococcus aureus, Bacterial strain 2 / growth of Staphylococcus aureus, Bacterial strain 3: enrichment broth, 37° C. for 24 hours, turbidity
# Description: as §1, §2, §3, §4, §5, §6, §7, §8, §9, §10, §11, §12, §13, §14, §15, §16
# [3] = test system: nine strains of Candida albicans; assay: Growth of Candida in enrichment broth after 24 hours, clinical strains; conditions: agent alone, 0.025 percent (weight/volume), broth pH 4.5, 37° C. 24 hours
# Description: as §2, with “broth:” for “broth,”, “4.5,” for “4.8,”
# (2) Experimental groups: the requirements of aseptic operation technique were strictly followed so to prepare the sterile test tubes;
# a. sodium benzoate group: each test tube contained 5 milliliters enrichment broth, and was added in 0.025 percent (weight/volume) of sodium benzoate;
# b. 2-phenylethanol group: each test tube contained 5 milliliters enrichment broth, and was added in 0.050 percent (weight/volume) of 2-phenylethanol;
# c. sodium propionate group: each test tube contained 5 milliliters enrichment broth, and was added in 0.125 percent (weight/volume) of sodium propionate;
# d. “a group of the combinations of sodium benzoate and sodium propionate”: each test tube contained 5 milliliters enrichment broth, and was added in 0.025 percent (weight/volume) of sodium benzoate and 0.125 percent (weight/volume) of sodium propionate;
# e. “a group of the combinations of sodium benzoate and 2-phenylethanol”: each test tube contained 5 milliliters enrichment broth, and was added in 0.025 percent (weight/volume) of sodium benzoate and 0.050 percent (weight/volume) of 2-phenylethanol;
# f. “a group of the combinations of sodium propionate and 2-phenylethanol”: each test tube contained 5 milliliters enrichment broth, and was added in 0.125 percent (weight/volume) of sodium propionate and 0.050 percent (weight/volume) of 2-phenylethanol;
# g. “a group of the combinations of sodium benzoate, sodium propionate and 2-phenylethanol”: each test tube contained 5 milliliters enrichment broth, and was added in 0.025 percent (weight/volume) of sodium benzoate, 0.125 percent (weight/volume) of sodium propionate and 0.050 percent (weight/volume) of 2-phenylethanol;
# h. positive control: the control tube of enrichment broth without adding in 2-phenylethanol, sodium benzoate, and sodium propionate; but inoculated the suspension of Candida albicans;
# i. negative control: the control tube of enrichment broth without adding in 2-phenylethanol, sodium benzoate, and sodium propionate; and without inoculating Candida albicans;
# The requirements for aseptic operation technique were strictly followed to prepare the suspension of organism. The colonies of each strain of Candida albicans organism were diluted with physiological saline respectively. The turbidities of the suspensions of Candida albicans organism were adjusted to 0.5 MCF (about 10^8 CFU/ml) by a turbidimeter. 1 milliliter of the 0.5 MCF organism suspension was added into 9 milliliters of enrichment broth. Each suspension was diluted for ten times to contain 10^7 CFU/ml of organisms.
# the requirements for aseptic technique were strictly followed to take 100 microliters of the prepared organism suspension respectively and to add the suspension into the test tubes from a to h as well as the positive control tube. No organism suspension was added into the negative control tube i.
# The above tubes were cultured in a biochemical incubator at 37° C. for 24 hours. Then the growth of Candida in each tube was observed and recorded.
# Remark: “+” means the growth of organisms; “−” means no growth of organisms.
# Lactococcus lactis = assay: Gram-stained smear of co-culture gel, Gram-positive cocci (G+c); conditions: for Smear G^+c: cultivated 32 hours
# Description: (§17) 2.1 Experimental strains: one Lactococcus lactis strain and one Lactobacillus jensenii strain, both were clinical isolates.
# (§18) The pH value was adjusted to 5.0.
# (§19) 2.4 Experimental procedure: the test gel tubes containing different concentrations of antimicrobial agents, as shown in Tables 1 to 6 were inoculated with 100 microliters of Lactobacillus lactis suspension and 100 microliters of Lactobacillus jensenii suspension at the same time. The turbidities of both suspensions were 0.5 MCF. Then the tubes were cultivated at 37° C. and under 5 percent CO2 for 32 hours. Then the changes of the pH values of gels were tested. The gels were smeared, Gram stained, and microscopically examined for the morphology and quantity of bacteria.
# Lactobacillus jensenii = assay: Gram-stained smear of co-culture gel, Gram-positive rods (G+b); conditions: for Smear G^+b: cultivated 32 hours
# Description: as §17, §18, §19
# [4] = test system: Lactococcus lactis and Lactobacillus jensenii; assay: pH of test gel after co-culture of Lactococcus lactis and Lactobacillus jensenii; conditions: cultivated 32 hours
# Description: as §17, §18, §19
# [5] = 0.05 percent (weight/volume) in enrichment broth pH 4.8, 37° C. 24 hours
compound,measurement,setting,value
OCCc1ccccc1 [b. 0.05% 2-phenylethanol],"growth of Escherichia coli, Bacterial strain 1",[1],+
same,"growth of Escherichia coli, Bacterial strain 2",[1],+
same,"growth of Escherichia coli, Bacterial strain 3",[1],+
same,"growth of Staphylococcus aureus, Bacterial strain 1",[2],+
same,"growth of Staphylococcus aureus, Bacterial strain 2",[2],+
same,"growth of Staphylococcus aureus, Bacterial strain 3",[2],+
O=C([O-])c1ccccc1.[Na+] [sodium benzoate],number of the nine Candida albicans strains that grew,[3],nine
same,Smear G^+c,Lactococcus lactis; 0.035 % in test gel,G^+c++++
same,Smear G^+c,Lactococcus lactis; 0.05 % in test gel,G^+c++++
same,Smear G^+c,Lactococcus lactis; 0.065 % in test gel,G^+c++
same,inhibition effect on the growth of Lactococcus lactis,Lactococcus lactis; 0.065 to 0.1 percent,stronger inhibition effect
same,Smear G^+c,Lactococcus lactis; 0.1 % in test gel,G^+c+
same,Smear G^+b,Lactobacillus jensenii; 0.035 % in test gel,G^+b+
same,Smear G^+b,Lactobacillus jensenii; 0.05 % in test gel,G^+b+
same,Smear G^+b,Lactobacillus jensenii; 0.065 % in test gel,G^+b++
same,inhibition effect on the growth of Lactobacillus,Lactobacillus jensenii; 0.065 to 0.1 percent,weaker inhibition effect
same,Smear G^+b,Lactobacillus jensenii; 0.1 % in test gel,G^+b+++
same,pH value,[4]; 0.035 % in test gel,<3.8
same,pH value,[4]; 0.05 % in test gel,<3.8
same,pH value,[4]; 0.065 % in test gel,4.1
same,pH value,[4]; 0.1 % in test gel,4.6
same,"could inhibit the growth of Escherichia coli (agent alone, words)",[1]; [5],no one of the three antimicrobial agents
same,"could inhibit the growth of Staphylococcus aureus (agent alone, words)",[2]; [5],no one of the three antimicrobial agents
O=C([O-])c1ccccc1.[Na+] [a. 0.05% sodium benzoate],"growth of Escherichia coli, Bacterial strain 1",[1],+
same,"growth of Escherichia coli, Bacterial strain 2",[1],+
same,"growth of Escherichia coli, Bacterial strain 3",[1],+
same,"growth of Staphylococcus aureus, Bacterial strain 1",[2],+
same,"growth of Staphylococcus aureus, Bacterial strain 2",[2],+
same,"growth of Staphylococcus aureus, Bacterial strain 3",[2],+
